Measured values published in patent US8470526B2, “Method of suppressing human immunodeficiency virus (HIV) replication in a subject by administering a liver X receptor (LXR) agonist” (The George Washington University, priority 2005, dated 2013).

Columns and labels:
Assay type in all cases: cell-based
[1] = test system: Human monocyte-derived macrophages infected with HIV-1 ADA; test: Cholesterol efflux to apoA-I from HIV-1 ADA-infected monocyte-derived macrophages; details: TO-901317 500 nM added at day 7 after infection, kept 7 more days; efflux measured on day 21 after infection
Experimental: (§1) Human monocyte-derived macrophages were infected with HIV-1 ADA or mock-infected, and 7 days after infection were treated or not with LXR agonist, TO-901317 (500 nM), for 7 more days.
A—Cholesterol efflux to apoA-I was measured on day 21 after infection. *p<0.01 (versus uninfected cells not treated with TO-901317), *p<0.01 (versus HIV-infected cells not treated with TO-901317).
(§2) To determine whether impairment of cholesterol efflux has a role in HIV biology, we compared infectivity of HIV virions produced from monocyte-derived macrophages stimulated or not with an LXR agonist, TO-901317. We hypothesized that if impairment of cholesterol efflux is a specific mechanism to increase HIV replication, then agents counteracting this effect should have anti-HIV activity. LXR agonists up-regulate expression of ABCA1 at a transcriptional level and stimulate cholesterol efflux from various cell types, including human monocyte-derived macrophages ([47] and FIG. 9A). […] Virions were collected from TO-901317-treated and untreated cells, adjusted according to p24 content, and analyzed for infectivity using indicator P4-CCR5 cells.
Cholesterol and phospholipid efflux from RAW264.7 cells. […] For cholesterol efflux analysis, aliquots of medium and cells were counted. […] The efflux was calculated as radioactivity in the medium/(radioactivity in the medium+radioactivity remaining in the cells)×100%. […]

HIV-1 ADA = test: Infectivity of virions from HIV-1 ADA-infected macrophages on indicator P4-CCR5 cells; details: TO-901317 500 nM from day 7 after infection for 7 more days; virions adjusted according to p24; versus virions from untreated cells
Experimental: as §1
B—Virions were collected from culture supernatants of LXR agonist-treated and untreated (control) cells on day 10 and day 14 (pooled together), adjusted according to p24 content and analyzed for infectivity on indicator P4-CCR5 cells. Experiment was performed in triplicate and results (mean±SD) are presented as percent infectivity of virions produced by control cells; *p<0.001.
as §2, with “activity.” for “activity. LXR agonists up-regulate expression of ABCA1 at a transcriptional level and stimulate cholesterol efflux from various cell types, including human monocyte-derived macrophages ([47] and FIG. 9A).”
Infectivity assay. Virus infectivity was analyzed using P4-CCR5 indicator cells that express B-galactosidase under control of HIV-1 LTR. […] The plate was incubated at 37° C. for 1.5 hours and OD readings were taken at 420 nm.

HIV-1 ADA virions = test: Analysis of virion-associated cholesterol ([3H]cholesterol incorporation into virions); details: virions from macrophages treated with 500 nM TO-901317 versus untreated cells; normalized according to p24
Experimental: C—Incorporation of [^3H]cholesterol into virions produced by LXR agonist-treated and untreated (control) cells was measured in triplicate and results (mean±SD) are presented relative to cholesterol in the virions produced by control cells; *p<0.001.
as §2
Analysis of virion-associated cholesterol. […] Culture supernatants were collected every 3 days over the period of 2 weeks, pooled, and virions were pelleted by ultracentrifugation, normalized according to p24 value, and the amount of incorporated [^3H]cholesterol counted on a beta-counter.

O=S(=O)(c1ccccc1)N(CC(F)(F)F)c1ccc(C(O)(C(F)(F)F)C(F)(F)F)cc1 [TO-901317]
effect on impairment of cholesterol efflux to apoA-I by HIV-1 infection [1]: prevented the impairment of cholesterol efflux
reduction of infectivity of virions produced from macrophages treated with LXR agonist (HIV-1 ADA): about 80%
virion-associated cholesterol (HIV-1 ADA virions): significantly diminished
